By zone of inhibition is commonly meant the size of the clear area around the sample on an inoculated plate.

Zone of inhibition data for one compound are collected here from patent publication US20250024846A1, “DEVELOPMENT OF FOOD-GRADE FUNGAL FERMENTATES WITH ANTIMICROBIAL ACTIVITY AND THE USE THEREOF” (Wisconsin Alumni Research Foundation, priority 2021, published 2025).

The experiment relates to Staphylococcus aureus. Briefly: Agar diffusion disc test (zone of inhibition). In kind it is cell-based. Conditions: positive control, 100 μg/mL (FIG. 2b). The method, then: Extraction of fermentates. Screening of the antimicrobial activity of NP extracts produced via liquid-liquid extraction with various organic solvents was performed. The tested organic solvents (i.e., ethyl acetate, chloroform, diethyl ether, dichloromethane, tetrahydrofuran, toluene, EMW (mixture of ethyl acetate:methanol:water), CEF (mixture of chloroform:ethyl acetate:formic acid), and BEA (mixture of benzene:ethanol:ammonia hydroxide)) are described in Table 2. 20 mL of NP1 or NP2 was reacted with 20 mL of an organic solvent in 50 mL conical tubes and incubated overnight at 25±2° C. with shaking at 150 rpm. The mixtures were centrifuged at 5000 g and the organic layer was transferred to a new 50 mL conical tube. The extracts were evaporated until dry under gentle airflow. Then, the extracts were reconstituted in 1 mL of methanol and filtered with a sterile 0.45 μm filtration unit. The methanol solution was tested for antimicrobial activity.
(Agar diffusion results depend on both activity and mobility in agar.)

`CC1(C)S[C@@H]2[C@H](NC(=O)[C@H](N)c3ccccc3)C(=O)N2[C@H]1C(=O)O` [ampicillin] came in with a zone of inhibition at 100 µg/mL of around 30 mm.
